Here are results for 15 compounds from US5843941A, “Ras farnesyl transferase inhibitors” (Genentech, Inc., priority 1994, dated 1998).

Read-outs that look alike come from different tables or passages of the source.

Experiment [1] has as its system farnesylated proteins F1, F2 and F3 in Met18b-2 cells. The experiment in a line: Inhibition of intracellular farnesylation in intact Met18b-2 cells, Triton-soluble proteins F1, F2, F3. The class given is cell-based, Chinese hamster. The following applies: for EC90: Cricetulus griseus, read-out: EC 90% "B isomer". From the text: To study farnesylation in intact cells we used Met18b-2 cells, a line of Chinese hamster ovary (CHO) cells that takes up [3H]mevalonate efficiently (see Faust, J., and Krieger, M. J. Biol. Chem. 262, 1966 (1987)) owing to the production of a mevalonate transport protein (see Kim, C. M., Goldstein, J. L., Brown, M. S. J. Biol. Chem. 267, 23113 (1992)). The [3H]mevalonate is converted by the cells into [3H]farnesyl pyrophosphate and [3H]geranylgeranyl pyrophosphate, which are then attached to proteins (Kim, C. M., Goldstein, J. L., Brown, M. S. J. Biol. Chem. 267, 23113 (1992)). In the assay, stock cultures of Met18b-2 cells were seeded at a density of 3-105 cells per 60 mm dish in 3 ml of medium A (Dulbecco's modified Eagle medium/Ham's F12 medium (1:1, v/v) containing 100 U/ml penicillin and 100 μg/ml streptomycin) supplemented with 5% (v/v) fetal calf serum (FCS). On day 3, each monolayer was refed with 1 ml medium A supplemented with 1% FCS (dialyzed against 0.15 M NaCl). At this point the cells were treated with 100 μM compactin (see Brown, M. S., Faust, J. R., Goldstein, J. L., Kaneko, I., and Endo, A. J. Biol. Chem. 253, 1121 (1978)) which blocks the synthesis of unlabeled mevalonate within the cells. Each compound was dissolved at 25 mM in DMSO/10 mM DTT immediately before use and 10 μl of this solution added directly. After 2 hr incubation at 37° C., each monolayer received 100 μCi [3H]mevalonate (60 Ci/mmol, American Radiolabeled Chemicals, Inc.) added in 100 μl of the medium A, and the incubation continued for 4 hr. The cells were harvested by rinsing three times with 3 ml of 50 mM Tris-HCl/0.15 M NaCl (pH 7.5). 300 μl of lysis buffer (0.5X Dulbecco's phosphate-buffered saline containing 1% Triton X-100, 5 μg/ml leupeptin, 5 μg/ml pepstatin, 0.5 mM phenylmethylsulfonyl fluoride, and 0.05 U/ml aprotinin) was added to each monolayer. After incubation on ice for 5 mon, the lysates were centrifuged 30 sec in a microfuge at 12,000 g. The resulting supernatant was tranferred to a new tube, and each pellet was resuspended in 60 μl of lysis buffer. Protein concentrations were determined using the BCA protein assay reagent (Pierce) according to the manufacturer's instructions. Detergent-soluble (supernatant) and -insoluble (pellet) samples were mixed with 2X SDS sample buffer (see Laemmli, U. K. Nature 227, 680 (1970)) and heated at 95° C. for 5 min before electrophoresis. Each lane contained 90 μg protein, and was run on a 12.5% SDS-polyacrylamide gel. The gel was dried, treated with ENTENSIFY (NEN-DuPont), and exposed to Kodak XOMAT-AR film for 9 h at -80° C. to allow visualization of all prenylated proteins. Migration of [14C]methylated molecular weight standards (Amersham) were used as markers.
The results of this assay are shown in FIG. 3, using a final concentration of 250 μM for each inhibitor. […] As shown in the figure, none of the control peptides or control benzodiazepine-peptideomimetics altered the prenylation of proteins in intact cells.
Using the same cells and procedures followed above for Example 125, we measured the dose dependence upon the inhibition of farnesylation in intact cells. […] Compound 37B inhibited the famesylation of F1-3 detectably at 10 μM, and almost completely at 25 μM.
In this manner, it is possible to obtain data regarding the comparative potency of these inhibitors upon the level of intracellular farnesylation. We have chosen to report the EC90% values for these inhibitors as the concentration required for a reduction in the Triton- soluble labelling (denoted F-1, F-2, and F-3) to 90% of control cells (untreated).

Experiment [2] has as its target T1, CAAX farnesyltransferase (Rattus norvegicus, UniProt Q02293+Q04631). Kind of experiment: In vitro inhibition of CAAX farnesyltransferase. To be noted: Table D. Further details: purified to homogeneity from rat brain homogenates; from tissue; host or cells: rat brain; alternatively recombinant enzyme from a baculovirus expression system. In kind it is biochemical. The procedure: All compounds were tested for in vitro inhibition of CAAX protein farnesyltransferase. […] Alternatively, recombinant CAAX protein farnesyltransferase was also used in this assay. […] Seventy-two hrs after infection, the cells were harvested and disrupted and the enzyme isolated by chromatography on Q-Sepharose.
After incubation for 30 min at 37° C., the amount of [3H]famesyl group transferred to p21H-ras was measured by precipitation with SDS/trichloroacetic acid, filtration onto nitrocellulose, and scintillation counting.
Structures of the compounds tested are reproduced below. Compound numbers also refer to example numbers above.

The target of experiment [3] is T1, CAAX farnesyltransferase. The experiment in a line: In vitro farnesylation of the compound by CAAX farnesyltransferase (substrate test, thin layer chromatography). The following applies: relative to tetrapeptide CVIM, 3.6 μM, 37° C., 30 min; for % farnesylation "A": diastereomer A; for % farnesylation "B": diastereomer B. The class given is biochemical. The procedure: After incubation at 37° C. for 30 min, the reaction was stopped by addition of 2 μl of 250 mM EDTA, and the entire reaction mixture was spotted onto a plastic-backed Silica Gel G thin layer sheet (20×20 cm, Brinkmann Inst.) and placed in a tank containing n-propyl alcohol/ammonium hydroxide/water (6:3:1 v/v/v).

Setting [4] is: diastereomer A, read-out: EC50 (μM) "A".
Setting [5] is: diastereomer B, read-out: EC50 (μM) "B".

T1 sequence (Q02293 whole entry, one chain of several): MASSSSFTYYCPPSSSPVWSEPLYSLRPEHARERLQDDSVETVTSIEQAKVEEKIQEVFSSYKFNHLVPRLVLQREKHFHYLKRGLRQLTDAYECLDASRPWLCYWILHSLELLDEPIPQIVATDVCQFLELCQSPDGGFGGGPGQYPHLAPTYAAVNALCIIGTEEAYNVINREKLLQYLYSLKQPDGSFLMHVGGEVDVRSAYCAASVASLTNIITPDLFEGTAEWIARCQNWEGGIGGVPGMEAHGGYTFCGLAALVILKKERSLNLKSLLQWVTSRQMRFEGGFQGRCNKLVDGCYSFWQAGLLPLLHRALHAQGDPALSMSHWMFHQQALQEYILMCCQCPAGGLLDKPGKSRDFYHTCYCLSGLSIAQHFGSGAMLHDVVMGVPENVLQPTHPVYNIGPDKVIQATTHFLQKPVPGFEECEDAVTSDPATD

With `CSCC[C@H](NC(=O)CN1C(=O)C(N(C)C(=O)[C@@H](N)CS)N=C(c2ccccc2)c2ccccc21)C(N)=O` (single isomer, unassigned) [33B, N-[[3-[(2-amino-3-mercapto-1-oxopropyl)methylamino]-2,3-dihydro-2-oxo-5phenyl-1H-1,4-benzodiazepin-1-yl]acetyl]-L-methionine amide], in experiment [1] (dose dependence, FIG. 4, compared with 27B and 37B), the “relative potency in intact cells” value is given as “of intermediate potency”.

Turning to `CSCC[C@H](NC(=O)CN1C(=O)C(N(C)C(=O)[C@@H](N)CS)CCc2ccccc21)C(=O)O` (stereo partly shown) [compound 9], the EC50 (in general, the midpoint of the concentration-response curve) at CAAX farnesyltransferase [2] (setting [4]) worked out at 1.2 µM. On CAAX farnesyltransferase [2] (setting [5]), the EC50 is 0.024 µM. In addition, on CAAX farnesyltransferase [3], the “% farnesylation "A"” value was less than 1% and the “% farnesylation "B"” value is less than 1%.

`CSCC[C@H](NC(=O)CN1C(=O)C(NC(=O)[C@@H](N)CS)CCc2ccccc21)C(=O)O` (stereo partly shown) [compound 10]: the results for the EC50 at CAAX farnesyltransferase [2] (setting [4]) and on CAAX farnesyltransferase [2] (setting [5]) were 1.6 µM and 1.4 µM, respectively. Besides, the “% farnesylation "A"” value on CAAX farnesyltransferase [3] was determined as 20%. The “% farnesylation "B"” value on CAAX farnesyltransferase [3] was less than 1%.

With `CSCC[C@H](NC(=O)CN1C(=O)C(N(C)C(=O)[C@@H](N)CS)N=C(c2ccccc2)c2ccccc21)C(=O)O` (stereo partly drawn) [compound 27, N-[[3-[(2-amino-3-mercapto-1-oxopropyl)methylamnino]-2,3-dihydro-2-oxo-5-phenyl-1H -1,4-benzodiazepin-1-yl]acetyl]-L-methionine], the EC50 at CAAX farnesyltransferase [2] (setting [4]) was 0.8 µM; at CAAX farnesyltransferase [2] (setting [5]) it was 0.0003 µM. In addition, the “% farnesylation "A"” value on CAAX farnesyltransferase [3] was 5%. Moreover, at CAAX farnesyltransferase [3], the “% farnesylation "B"” value was less than 1%.

As to `CSCC[C@H](NC(=O)CN1C(=O)C(NC(=O)[C@@H](N)CS)N=C(c2ccccc2)c2ccccc21)C(=O)O` (stereo partly drawn) [compound 28, N-[[3-[(2-amino-3-mercapto-1-oxopropyl)amino]-2,3-dihydro-2-oxo-5phenyl-1H-1,4-benzodiazepin-1-yl]acetyl]-L-methionine], the EC50 stood at 0.38 µM at CAAX farnesyltransferase [2] (setting [4]) and 0.431 µM at CAAX farnesyltransferase [2] (setting [5]). Moreover, the “% farnesylation "A"” value at CAAX farnesyltransferase [3] is 9%. Besides, on CAAX farnesyltransferase [3], the “% farnesylation "B"” value is listed as less than 1%.

`CSCC[C@H](NC(=O)CN1C(=O)C(N(C)C(=O)CCS)N=C(c2ccccc2)c2ccccc21)C(=O)O` (stereo partly shown) [compound 29]: on CAAX farnesyltransferase [2] (setting [4]), the EC50 amounted to 1.8 µM. In addition, at CAAX farnesyltransferase [2] (setting [5]), the EC50 is 1.8 µM. In addition, on CAAX farnesyltransferase [3], the “% farnesylation "A"” value is given as less than 1% and the “% farnesylation "B"” value was less than 1%.

With `CN(C(=O)[C@@H](N)CS)C1N=C(c2ccccc2)c2ccccc2N(CC(=O)N[C@@H](CO)C(=O)O)C1=O` (stereo partly shown) [compound 30], the EC50 at CAAX farnesyltransferase [2] (setting [4]) is 10 µM. Also, the EC50 at CAAX farnesyltransferase [2] (setting [5]) came out at 0.0084 µM. On CAAX farnesyltransferase [3], the “% farnesylation "A"” value is recorded as less than 1% and the “% farnesylation "B"” value is on record as less than 1%.

Turning to `CC(C)C[C@H](NC(=O)CN1C(=O)C(N(C)C(=O)[C@@H](N)CS)N=C(c2ccccc2)c2ccccc21)C(=O)O` (stereo partly drawn) [compound 31, N-[[3-[(2-amino-3-mercapto-1-oxopropyl)methylamino]-2,3-dihydro-2-oxo-5-phenyl-1H -1,4-benzodiazepin-1-yl]acetyl]-L-leucine], the EC50 at CAAX farnesyltransferase [2] (setting [4]) is 0.084 µM. The half-maximal effective concentration (EC50) on CAAX farnesyltransferase [2] (setting [5]) came to 0.0021 µM. Moreover, at CAAX farnesyltransferase [3], the “% farnesylation "A"” value is less than 1% and the “% farnesylation "B"” value is listed as less than 1%.

As to `CSCC[C@H](NC(=O)CN1C(=O)C(N(C)C(=O)[C@H](CS)NC(C)=O)N=C(c2ccccc2)c2ccccc21)C(=O)O` (stereo partly drawn) [compound 32, N-[[3-[(2-acetylamino-3-mercapto-1-oxopropyl)methylamino]-2,3-dihydro-2-oxo-5-phenyl-1H-1,4-benzodiazepin-1-yl]acetyl]-L-methionine], the concentration giving a half-maximal response (EC50) at CAAX farnesyltransferase [2] (setting [4]) came to 1.2 µM; at CAAX farnesyltransferase [2] (setting [5]) it was 8 µM. Also, on CAAX farnesyltransferase [3], the “% farnesylation "A"” value worked out at 110%. For the same compound, the “% farnesylation "B"” value on CAAX farnesyltransferase [3] is on record as less than 1%.

In the case of `CN(C(=O)[C@@H](N)CS)C1N=C(c2ccccc2)c2ccccc2N(CC(=O)N[C@@H](Cc2ccccc2)C(=O)O)C1=O` (stereo partly drawn) [compound 34, N-[[3-[(2-amino-3-mercapto-1-oxopropyl)methylamino]-2,3-dihydro-2-oxo-5-phenyl-1H-1,4-benzodiazepin-1-yl]acetyl]-L-phenylalanine], the EC50 worked out at 0.54 µM on CAAX farnesyltransferase [2] (setting [4]) and 0.0005 µM at CAAX farnesyltransferase [2] (setting [5]). The “% farnesylation "B"” value at CAAX farnesyltransferase [3] is less than 1%.

With `COC(=O)[C@H](CCSC)NC(=O)CN1C(=O)C(N(C)C(=O)[C@@H](N)CS)N=C(c2ccccc2)c2ccccc21` (stereo partly shown) [compound 37], the EC50 on CAAX farnesyltransferase [2] (setting [4]) came to 0.19 µM. The EC50 at CAAX farnesyltransferase [2] (setting [5]) stood at 0.05 µM. Moreover, on CAAX farnesyltransferase [3], the “% farnesylation "A"” value was less than 1% and the “% farnesylation "B"” value is given as 2%.

For `CSCC[C@H](NC(=O)CN1C(=O)C(N(C)C(=O)C2CSC(C)N2)N=C(c2ccccc2)c2ccccc21)C(=O)O` (stereo partly drawn) [compound 43, N-[[3-[(2-methylthiazolidine-4-carboxyl)methylamino] -2,3-dihydro-2-oxo-5-phenyl-1H-1,4-benzodiazepin-1-yl]acetyl]-L-methionine], the EC50 on CAAX farnesyltransferase [2] (setting [4]) came out at 0.32 µM; on CAAX farnesyltransferase [2] (setting [5]), 0.006 µM. Besides, the “% farnesylation "A"” value at CAAX farnesyltransferase [3] is less than 1%. Moreover, the “% farnesylation "B"” value on CAAX farnesyltransferase [3] is less than 1%.

For the compound `CC(C)C[C@H](NC(=O)CN1C(=O)C(N(C)C(=O)[C@@H](N)CS)N=C(c2ccccc2)c2ccccc21)c1nnn[nH]1` (stereo partly drawn) [compound 46, N-[[3-[(2-amino-3-mercapto-1-oxopropyl)methylamino]-2,3-dihydro-2-oxo-5-phenyl-1H-1,4-benzodiazepin-1-yl]acetyl]-L-leucine tetrazole], the EC50 on CAAX farnesyltransferase [2] (setting [4]) turned out to be 0.26 µM; at CAAX farnesyltransferase [2] (setting [5]) it was 0.0016 µM. Besides, the “% farnesylation "B"” value at CAAX farnesyltransferase [3] is less than 1%.

As to `COC(=O)c1cccc(CN2C(=O)C(N(C)C(=O)[C@@H](N)CSSC(C)(C)C)N=C(c3ccccc3)c3cc(Cl)ccc32)c1` (stereo partly shown) [compound 99, N-[[3-[(2-amino-3-tert-butylthiomercapto-1-oxopropyl)methylamino]-2,3-dihydro-2-oxo-5-phenyl-7-chloro-1H-1,4-benzodiazepin-1-yl]methyl]-3-carboxymethylbenzene], the EC50 at CAAX farnesyltransferase [2] (setting [5]) is 0.38 µM. For the same compound, in experiment [1], the EC90 was 30000 nM.

For the compound `COC(=O)c1cccc(CN2C(=O)C(N(C)C(=O)[C@@H]3CSC(C)N3)N=C(c3ccccc3)c3cc(Cl)ccc32)c1` (stereo partly shown) [compound 100, N-[[3-[(2-methylthiazolidine-4-carboxyl)methylamino]-2,3-dihydro-2-oxo-5-phenyl-7-chloro-1H-1,4-benzodiazepin-1-yl]methyl]-3-carboxymethylbenzene], the EC50 came to 0.52 µM at CAAX farnesyltransferase [2] (setting [4]) and 0.034 µM at CAAX farnesyltransferase [2] (setting [5]). The EC90 in experiment [1] amounted to 30000 nM.
